PMC8596843, “Platinum Cyclooctadiene Complexes with Activity against Gram‐positive Bacteria” (Chemmedchem, 2021)

Experiments:
[1] = tested on: Staphylococcus aureus ATCC 43300 (MRSA); experiment: microbe, parasite or virus in culture; format: cell-based; details: for MIC Sa: CO‐ADD screening
Procedure: (§1) All compounds submitted to CO‐ADD are initially screened against five bacterial strains (Staphylococcus aureus (MRSA), E. coli, Klebsiella pneumoniae, Pseudomonas aeruginosa, Acinetobacter baumannii) and two fungal strains (Candida albicans, Cryptococcus neoformans) at a single concentration (32 μg/mL or 20 μM) performed as a high‐throughput primary screening.[[11], [17a]] Any compounds that show significant growth inhibition against any of the tested strains at this step are then evaluated in a dose‐response assay against these same strains. […]
(§2) Smiles: C1C=CCCC(=CC1)C1=CCCC=CCC1.C[Pt]C.C[Pt]C […]
(§3) ATCC strains were sourced from the American Type Culture Collection and NRS strains from NARSA (Network on Antimicrobial Resistance in Staphylococcus aureus) via BEI Resources (www.beiresources.org), with clinical MSSA and MRSA isolates from Prof Graeme Nimmo, Queensland […]
(§4) Health Central Pathology. […]
(§5) Antibacterial minimum inhibitory concentration (MIC) assay
(§6) Compound Assay Plate Preparation: Compounds were dissolved in DMSO at 10mM (CO-ADD screening) or 4 mM (follow up screening) and were plated in a 2-fold dose response from 20 to 0.156 µM or 200 to 0.006 µM respectively, with a maximum of 0.5% or 1% DMSO, final in the assay […]
(§7) plated in a 2-fold dose response from 200 to 0.006 µM, with a maximum of 1 % DMSO, final in the assay concentration. (in-house screening)
(§8) For all the bacterial assays, each strain was cultured in Cation-adjusted Mueller Hinton broth (CAMHB; Bacto Laboratories 212322) at 37 °C overnight. A sample of each culture was then diluted 40-fold in fresh CAMHB and incubated at 37 °C for 1.5–3 h. The resultant mid-log phase cultures were diluted with CAMHB (CFU mL−1 measured by OD600), then added to each well of the compound-containing plates (384-well non-binding surface (NBS) plates; Corning CLS3640), giving a cell density of 5 × 10^5 CFU mL−1 and a total volume of 50 μL. Plates were covered and incubated at 37 °C for 18 h without shaking. Inhibition of bacterial growth was determined measuring absorbance at 600 nm (OD600), using media only as negative control and bacteria without inhibitors as positive control. MIC values were determined as the lowest concentration at which the growth was inhibited at ≥80%. Colistin sulfate (Sigma C4461) and vancomycin HCl (Sigma 861987) were used as internal controls on each plate for Gram-negative and Gram-positive bacteria, respectively. […]

[2] = tested on: Acinetobacter baumannii ATCC 19606; experiment: Antibacterial MIC assay; format: cell-based; details: CO‐ADD screening
Procedure: as §1, §2, §3, §4, §5, §6, §7, §8

[3] = tested on: Escherichia coli ATCC 25922; experiment: Antibacterial MIC assay; format: cell-based; details: CO‐ADD screening
Procedure: as §1, §2, §3, §4, §5, §6, §7, §8

[4] = tested on: Pseudomonas aeruginosa ATCC 27853; experiment: Antibacterial MIC assay; format: cell-based; details: CO‐ADD screening
Procedure: as §1, §2, §3, §4, §5, §6, §7, §8

[5] = tested on: Klebsiella pneumoniae ATCC 700603 (ESBL SHV‐18)
Procedure: as §1, §2, §3, §4, §5, §6, §7, §8

[6] = tested on: Candida albicans ATCC 90028; experiment: Antifungal MIC (CO-ADD screening); format: cell-based
Procedure: (§9) InChIKey: PHIWIZAHOBWKFJ-HPCBIOCFSA-N
(§10) Health Central Pathology. Candida albicans (ATCC 90028, NCCLS 11), Cryptococcus neoformans
as §5
(§11) concentration. (in-house screening)
(§12) Bacto Laboratories 212322) at 37 °C overnight.

[7] = tested on: Cryptococcus neoformans H99 ATCC 208821; experiment: Antifungal MIC (CO-ADD screening); format: cell-based
Procedure: as §9, §10, §5, §11, §12

[8] = tested on: HEK-293 ATCC CRL-1573 human embryonic kidney cells; format: cell-based
Procedure: As part of the CO‐ADD screening, all compounds that show any activity against a microbial strain are evaluated for their cytotoxicity against human embryonic kidney cells (HEK‐293) and for haemolysis against human red blood cells. None of the compounds tested for cytotoxicity (Pt1‐9 and Pd1) caused any significant cell death up to concentrations of 100 μM. […] We have also observed higher IC50 values for the methylated complexes Pt3 and Pt4 against HeLa cells in previous work.[16] […]
(§13) inhibitors as positive control.
(§14) Tamoxifen (Sigma T5648) was used
(§15) as internal control on each plate.
in a Neubauer haemocytometer. […]

human red blood cells = experiment: Haemolysis assay; format: cell-based; details: for Haemolysis HC10: concentration inducing 10 % haemolysis; for Haemolysis HC50: concentration inducing 50 % haemolysis
Procedure: As part of the CO‐ADD screening, all compounds that show any activity against a microbial strain are evaluated for their cytotoxicity against human embryonic kidney cells (HEK‐293) and for haemolysis against human red blood cells. None of the compounds tested for cytotoxicity (Pt1‐9 and Pd1) caused any significant cell death up to concentrations of 100 μM. […] We have also observed higher IC50 values for the methylated complexes Pt3 and Pt4 against HeLa cells in previous work.[16]
(§16) The resultant mid-log phase cultures were diluted
(§17) Gram-negative and Gram-positive bacteria, respectively.
(§18) final concentration range of 0.8 – 100 µM.
as §13, §14, §15
in a Neubauer haemocytometer.
incubated for 1 h at 37 °C, without shaking.
HC10 and HC50 (concentration at which 10%
for top, bottom and slope using Prism 8. […]

[9] = tested on: Staphylococcus aureus ATCC 25923, MSSA; experiment: Antibacterial MIC assay, Gram-positive panel; format: cell-based; details: Table S1 panel; n=4
Description: (§19) Bis(dimethyl-η4)-((1Z,1'E,5Z,5'E)-(1,1'-bi(cyclooctadiene))diplatinum(II) (Pt14) Smiles: C1C=CCCC(=CC1)C1=CCCC=CCC1.C[Pt]C.C[Pt]C
as §9
(§20) Link to selected data that was repeated to approve the identity of the compounds: https://dx.doi.org/10.14272/PHIWIZAHOBWKFJ-HPCBIOCFSA-N.1
as §3, §4, §5, §6, §7, §8

[10] = tested on: Staphylococcus aureus VRS 1, VRSA (VanA); experiment: Antibacterial MIC assay, Gram-positive panel; format: cell-based; details: Table S1 panel; n=4
Description: as §19, §9, §20, §3, §4, §5, §6, §7, §8

[11] = tested on: Enterococcus faecalis ATCC 29212, control strain; experiment: Antibacterial MIC assay, Gram-positive panel; format: cell-based; details: Table S1 panel; n=4
Procedure: as §2, §3, §4, §5, §6, §7, §8

[12] = tested on: Enterococcus faecalis Clinical Isolate, VRE (VanB); experiment: Antibacterial MIC assay, Gram-positive panel; format: cell-based; details: Table S1 panel; n=4
Procedure: as §2, §3, §4, §5, §6, §7, §8

[13] = tested on: Enterococcus faecium ATCC 35667, type strain; experiment: Antibacterial MIC assay, Gram-positive panel; format: cell-based; details: Table S1 panel; n=4
Procedure: as §2, §3, §4, §5, §6, §7, §8

[14] = tested on: Enterococcus faecium ATCC 51559, MDR, VRE (VanA); experiment: Antibacterial MIC assay, Gram-positive panel; format: cell-based; details: Table S1 panel; n=2
Procedure: as §2, §3, §4, §5, §6, §7, §8

[15] = tested on: Enterococcus faecium Clinical Isolate, VRE (VanA); experiment: Antibacterial MIC assay, Gram-positive panel; format: cell-based; details: Table S1 panel; n=4
Procedure: as §2, §3, §4, §5, §6, §7, §8

[16] = tested on: Staphylococcus epidermidis ATCC 14990, type strain; experiment: Antibacterial MIC assay, Gram-positive panel; format: cell-based; details: Table S1 panel; n=4
Procedure: as §2, §3, §4, §5, §6, §7, §8

[17] = tested on: Staphylococcus epidermidis NRS 60, VISE; experiment: Antibacterial MIC assay, Gram-positive panel; format: cell-based; details: Table S1 panel; n=4
Procedure: as §2, §3, §4, §5, §6, §7, §8

[18] = tested on: B. subtilis ATCC 6051 type strain; experiment: MIC in the presence of human serum (serum reversal); format: cell-based, Bacillus subtilis; details: 10% serum
Description: (§21) To obtain some initial insight into the apparent disparity between in vitro and in vivo results, we repeated the MIC experiments against four selected Gram‐positive strains in the presence of 10 % or 50 % human serum (Table S3). Pt1 and Pt2 maintained some antibacterial activity against B. subtilis in the presence of 10 % serum, but a complete loss of activity was observed against MRSA and GISA (50 % serum), and VRE (10 % serum). […] Systemic administration is therefore unlikely to be a suitable administration route for this class of compounds unless an alternative formulation that can prevent serum binding (e. g. by lipid or nanoparticle encapsulation) can be found. […] Further in vivo studies should therefore focus on more suitable disease models. […]
as §5, §11, §12, §16, §17, §18
(§22) inhibitors as positive control. […]

[19] = tested on: S. aureus ATCC 43300 MRSA; experiment: as above; format: cell-based, Staphylococcus aureus; details: 50% serum
Description: as §21, §5, §11, §12, §16, §17, §18, §22

S. aureus NRS 17 GISA = experiment: as above; format: cell-based, Staphylococcus aureus; details: 50% serum
Description: as §21, §5, §11, §12, §16, §17, §18, §22

[20] = tested on: E. faecium ATCC 51559 MDR, VRE; experiment: as above; format: cell-based, Enterococcus faecium; details: 10% serum
Description: as §21, §5, §11, §12, §16, §17, §18, §22

HT‐29 colon carcinoma = tested on: HT‐29 colon carcinoma; parameters: method as in earlier work; details: ref 14a, read-out: IC50 cytotoxicity; cited from earlier work
[21] = tested on: MCF‐7 breast cancer cells; parameters: method as in earlier work; details: ref 14a, read-out: IC50 cytotoxicity; cited from earlier work
[22] = tested on: Staphylococcus aureus NRS 17, GISA; experiment: Antibacterial MIC assay, Gram-positive panel; format: cell-based; details: Table S1 panel; n=2
Procedure: as §2, §3, §4, §5, §6, §7, §8

[23] = tested on: E. coli lpxC (non‐efficient lipid A production mutant); experiment: MIC against E. coli membrane mutants; format: cell-based, Escherichia coli; details: Table S2
Procedure: as §5, §11, §12, §16, §17, §18, §22

[24] = tested on: E. coli tolC (efflux pump deficient); experiment: MIC against E. coli membrane mutants; format: cell-based, Escherichia coli; details: Table S2
Procedure: as §5, §11, §12, §16, §17, §18, §22

Compound | MIC Sa [1] [µM] | MIC Ab [2] [µM] | MIC Ec [3] [µM] | MIC Pa [4] [µM] | MIC Kp [5] [µM] | MIC Ca [6] [µM] | MIC Cn [7] [µM] | CC50 [8] [µM] | Haemolysis HC10 (human red blood cells) [µM] | Haemolysis HC50 (human red blood cells) [µM] | MIC [9] [µM] | MIC [10] [µM] | MIC [11] [µM] | MIC [12] [µM] | MIC [13] [µM] | MIC [14] [µM] | MIC [15] [µM] | MIC [16] [µM] | MIC [17] [µM] | MIC in the presence of human serum [18] [µM] | further results
C1=CCCC=CCC1.[CH3][Pt][Cl] [Pt4] | >20 | >20 | >20 | >20 | >20 | 5 to 10 | 10 to 20 | > 100 | 10.23 | 52.11 | 100 | > 200 | > 200 | > 200 | > 200 | 25 | 200 | 50 | 100 | > 200 | MIC ([1]; Table S1 panel, n=2): 6.25 µM; MIC in the presence of human serum [19]: > 200 µM; MIC in the presence of human serum (S. aureus NRS 17 GISA): > 200 µM; MIC in the presence of human serum [20]: > 200 µM; IC50 (HT‐29 colon carcinoma): 8.3 ± 3 µM; IC50 [21]: 11.2 ± 1.4 µM
C1=CCCC=CCC1.COc1cc[c]([Pt][CH3])cc1 [Pt5] | >20 | >20 | >20 | >20 | >20 | 10 | 20 | > 100 | 88.43 | >100 | 100 | 200 | > 200 | > 200 | > 200 | 200 | 200 | 50 | 50 | > 200 | MIC [22]: 100 µM; MIC E. coli lpxC [23]: > 200 µM; MIC E. coli TolC [24]: > 200 µM; MIC in the presence of human serum [19]: > 200 µM; MIC in the presence of human serum (S. aureus NRS 17 GISA): > 200 µM; MIC in the presence of human serum [20]: > 200 µM
